Measurements from patent US8012463B2, “Coordination complex of diaminocyclohexaneplatinum(II) with block copolymer containing poly(carboxylic acid) segment and antitumor agent comprising the same” (Toudai TLO, Ltd., priority 2003, dated 2011).

Legend:
[1] = test system: mouse colon 26 (C-26) cell strain; assay: Cytotoxicity in vitro, growth inhibition by MTT method; format: cell-based; conditions: C-26 cells
Description: Growth inhibiting activities of free CDDP, CDDP micelle, DACH Pt micelle, mixtures of DACH Pt micelle and CDDP micelle at various mixing ratios (1/3, 1/1 and 3/1) against mouse colon 26 (C-26) cell strain were evaluated with MTT method. 5,000 cells were cultured in a 96 well-multiplate supplied with 50 μl of RPMI 1640 medium containing 10% fetal bovine serum. The cells were exposed to drugs for 48 and 72 hours. MTT solution was added, and 150 μl of a solution containing 10 wt % of sodium dodecylsulfate (SDS) supplemented with 0.01M HCl was added after 6 hours. Viability of cells was then measured based on optical density at 570 nm of formazan produced after 24 hours.

[2] = test system: ascites sarcoma 180; conditions: cited from earlier work

## N.N.[Cl][Pt][Cl] [Free CDDP, Cisplatin]
[1]; culture time 48 hours
  IC50: 1.5 µg/mL
[1]; culture time 72 hours
  IC50: 0.65 µg/mL

## O=C1[O][Pt-2]2([NH2+]C3CCCC[C@H]3[NH2+]2)[O]C1=O (some centres unmarked) [Pt(oxalato)-(dach)]
[2]; experimental animals bearing ascites sarcoma 180
  ED90: excellent ED90

## NC1CCCCC1N.O=C([O-])CC(=O)[O-].[Pt+2] (centres unmarked) [Pt(malonato)-(dach)]
[2]; in vivo
  therapeutic index relative to Pt(oxalato)-(cis-dach): half or less
[2]; ratio to Pt(oxalato)-(dach)
  ED90 dose compared with Pt(oxalato)-(dach): ≥ 5 times
